# What was measured:
# Assay type in all cases: physicochemical
# Conditions in all cases: unprocessed API vs. co-processed prodrug/HPMC batches from Example 1
# Powder flow = assay: Powder flow
# Bulk density of powder = assay: Bulk density of powder
# Tapped density of powder = assay: Tapped density of powder
smiles,measurement,setting,value
"COc1cnc(-n2cnc(C)n2)c2c1c(C(=O)C(=O)N1CCN(C(=O)c3ccccc3)CC1)cn2COP(=O)(O)O [API, 1-benzoyl-4-[2-[4-methoxy-7-(3-methyl-1H-1,2,4-triazol-1-yl)-1-[(phosphonooxy)methyl]-1H-pyrrolo[2,3-c]pyridin-3-yl]-1,2-dioxoethyl]-piperazine]",Flow,Powder flow,incomplete
same,Volumetric Flow,Powder flow,incomplete
same,Bulk Density,Bulk density of powder,0.13 g/cc
same,Tapped Density,Tapped density of powder,0.23 g/cc
